Data published in patent US7811797B2, “α-isomaltosylglucosaccharide-forming enzyme, process and uses of the same” (Kabushiki Kaisha Hayashibara Seibutsu Kagaku Kenkyujo, priority 2000, dated 2010).

How the values were obtained:
[1] = tested on: Bifidobacterium adolescentis JCM 1275; assay: Assimilation test, Bifidobacterium adolescentis; assay type: cell-based; details: PYF medium with 0.5% saccharide, 37° C., four days, anaerobic
[2] = tested on: Small intestinal mucosal enzyme
[3] = tested on: Eubacterium aerofaciens ATCC 25986; assay: Assimilation test, Eubacterium aerofaciens; assay type: cell-based; details: PYF medium with 0.5% saccharide, 37° C., four days, anaerobic
[4] = tested on: Bacteroides vulgatus JCM 5826; assay: Assimilation test, Bacteroides vulgatus; assay type: cell-based; details: PYF medium with 0.5% saccharide, 37° C., four days, anaerobic
[5] = Saturation concentration of cyclotetrasaccharide in water; assay type: physicochemical
Text: Each resulting saturated solution of cyclotetrasaccharide was membrane filtered to remove undissolved cyclotetrasaccharide, and each filtrate was then examined for moisture content by the drying loss method to determine a saturation concentration of cyclotetrasaccharide at respective temperatures.

[6] = tested on: α-isomaltosylglucosaccharide-forming enzyme; assay: Transfer-acceptor specificity, Enzyme of Strain C11; assay type: biochemical, Bacillus globisporus C11; details: acceptor 1.6%, PINE-DEX #100 donor 4%, one unit/g donor, 30° C., pH 6.0, 24 hours
[7] = Digestion test in vitro, synthetic gastric juice
[8] = tested on: α-isomaltosylglucosaccharide-forming enzyme; assay: Transfer-acceptor specificity, Enzyme of Strain A19; assay type: biochemical, Arthrobacter globiformis A19; details: acceptor 1.6%, PINE-DEX #100 donor 4%, one unit/g donor, 30° C., pH 8.4, 24 hours
How it was run: (§1)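 Each candidate acceptor at 1.6% was combined with 4% partial starch hydrolysate donor and 1 unit/g donor (d.s.b.) of purified enzyme. Incubation ran 24 h at 30 °C, pH 6.0 for the C9, C11 and N75 enzymes and pH 8.4 for A19. Transfer products were detected by GLC for mono- and disaccharide acceptors and HPLC for trisaccharide acceptors.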

[9] = tested on: α-isomaltosylglucosaccharide-forming enzyme; assay: Transfer-acceptor specificity, Enzyme of Strain C9; assay type: biochemical, Bacillus globisporus C9; details: acceptor 1.6%, PINE-DEX #100 donor 4%, one unit/g donor, 30° C., pH 6.0, 24 hours
How it was run: as §1

[10] = target: T1, Amylopsin (Homo sapiens, UniProt P04746); assay: Digestion test in vitro, amylopsin
T1 sequence (P04746 16-511): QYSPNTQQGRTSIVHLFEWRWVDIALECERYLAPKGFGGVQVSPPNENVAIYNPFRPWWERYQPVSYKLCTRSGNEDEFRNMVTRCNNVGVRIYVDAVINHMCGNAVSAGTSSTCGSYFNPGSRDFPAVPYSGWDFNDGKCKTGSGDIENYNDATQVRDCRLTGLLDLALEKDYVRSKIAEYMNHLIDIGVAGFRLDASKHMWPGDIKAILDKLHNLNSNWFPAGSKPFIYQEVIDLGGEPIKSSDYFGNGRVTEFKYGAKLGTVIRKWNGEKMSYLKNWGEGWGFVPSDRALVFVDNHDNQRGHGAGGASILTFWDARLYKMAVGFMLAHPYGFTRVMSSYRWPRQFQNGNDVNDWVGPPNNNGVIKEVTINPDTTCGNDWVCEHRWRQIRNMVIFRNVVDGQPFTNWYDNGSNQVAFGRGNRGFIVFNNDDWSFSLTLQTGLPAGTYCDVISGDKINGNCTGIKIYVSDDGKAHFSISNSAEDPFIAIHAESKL

## OCC1OC2OCC3O[C@H](O[C@H]4C(O)C(CO)OC(OCC5O[C@H](O[C@@H](C1O)C2O)C(O)C(O)[C@@H]5O)C4O)C(O)C(O)[C@@H]3O (stereo partly drawn) [Cyclotetrasaccharide, cyclo{→6)-α-D-glucopyranosyl-(1→3)-α-D-glucopyranosyl-(1→6)-α-D-glucopyranosyl-(1→3)-α-D-glucopyransoyl-(1→}]
[1]
  Assimilability: − (judged negative (−) when the post culture had a pH of 6.0 or higher)
[2]
  Decomposition percentage (%) by digestive enzyme: 0.74%
  digestibility relative to that of maltitol: ⅕
[3]
  Assimilability: − (judged negative (−) when the post culture had a pH of 6.0 or higher)
[4]
  Assimilability: − (judged negative (−) when the post culture had a pH of 6.0 or higher)
[5]; 10° C.
  Saturation concentration (%): 30.3%
[5]; 30° C.
  Saturation concentration (%): 34.2%
[5]; 50° C.
  Saturation concentration (%): 42.6%
[5]; 70° C.
  Saturation concentration (%): 53.0%
[5]; 90° C.
  Saturation concentration (%): 70.5%

## OC[C@@H](O)[C@@H](O[C@H]1O[C@H](CO)[C@@H](O)[C@H](O)[C@H]1O)[C@H](O)[C@@H](O)CO [Maltitol, reference compound]
[6]
  Product of transferring reaction, Enzyme of Strain C11: ++ (a saccharide-transferred product was detected in an amount over ten percent through transfer reaction to acceptor)
[7]
  Decomposition percentage (%) by digestive enzyme: 0.0%
[8]
  Product of transferring reaction, Enzyme of Stain A19: ++ (a saccharide-transferred product was detected in an amount over ten percent through transfer reaction to acceptor)
[9]
  Product of transferring reaction, Enzyme of Strain C9: ++ (a saccharide-transferred product was detected in an amount over ten percent through transfer reaction to acceptor)
[10]
  Decomposition percentage (%) by digestive enzyme: 0.0%
